Values of other authors in EP4015634A1, “SIRNA AND COMPOSITIONS FOR PROPHYLACTIC AND THERAPEUTIC TREATMENT OF VIRUS DISEASES” (SYLENTIS, S.A.U., priority 2020, dated 2022).
*1 amine or outer side, *2 acyl side, *3 side chain or, on linkers, in order; H or OH if unused. Where a SMILES comes first, the peptide text is derived from it. Bridges are numbered along the chain shown (N, C = ends). [ ]: non-standard residue; d: D form. The star is where a group is joined. X1 = CC[C@H](C)[C@@H](N[*:1])[C@@H](O)CC(=O)O[C@H](C(=O)[C@H](C)C(=O)[*:2])C(C)C; NMeY = CN[C@@H](Cc1ccc(O)cc1)C(=O)O; dNMeL = CN[C@H](CC(C)C)C(=O)O; Pyruvoyl = CC(=O)C(=O)*

Legend:
[1] = system: patients with COVID-19; conditions: phase I
[2] = system: SARS-CoV-2; conditions: in vitro studies

CC[C@H](C)[C@H]1NC(=O)[C@@H](NC(=O)[C@@H](CC(C)C)N(C)C(=O)[C@@H]2CCCN2C(=O)C(C)=O)[C@@H](C)OC(=O)[C@H](Cc2ccc(OC)cc2)N(C)C(=O)[C@@H]2CCCN2C(=O)[C@H](CC(C)C)NC(=O)[C@@H](C)C(=O)[C@H](C(C)C)OC(=O)C[C@@H]1O [plitidepsin] (Pyruvoyl-P[dNMeL]T[X1]LP[NMeY](Me); ester 3-C)
primary safety endpoint ([1]; patients with COVID-19 who required hospitalization): met the primary safety endpoint | preliminary secondary endpoints of efficacy ([1]; treated patients): substantial reduction in viral load and the C-reactive protein | SARS-CoV-2 viral load in vitro [2]: reduced SARS-CoV-2 viral load at nanomolar concentrations
